Patent US20110263662A1, “1,2-DIAMIDO-ETHYLENE DERIVATIVES AS OREXIN ANTAGONISTS” (priority 2007, published 2011)

Legend:
human orexin-1 receptor = molecular target: T1, human orexin-1 receptor (Homo sapiens, UniProt O43613); assay: FLIPR intracellular calcium assay, orexin receptor antagonistic activity (OX1); type: cell-based; conditions: CHO cells expressing human orexin-1 receptor, 3 nM orexin-A
T1 construct: expressed in transfected cells; host or cells: CHO (Chinese hamster ovary) cells, grown under G418 selection
T1 sequence (O43613 1-425): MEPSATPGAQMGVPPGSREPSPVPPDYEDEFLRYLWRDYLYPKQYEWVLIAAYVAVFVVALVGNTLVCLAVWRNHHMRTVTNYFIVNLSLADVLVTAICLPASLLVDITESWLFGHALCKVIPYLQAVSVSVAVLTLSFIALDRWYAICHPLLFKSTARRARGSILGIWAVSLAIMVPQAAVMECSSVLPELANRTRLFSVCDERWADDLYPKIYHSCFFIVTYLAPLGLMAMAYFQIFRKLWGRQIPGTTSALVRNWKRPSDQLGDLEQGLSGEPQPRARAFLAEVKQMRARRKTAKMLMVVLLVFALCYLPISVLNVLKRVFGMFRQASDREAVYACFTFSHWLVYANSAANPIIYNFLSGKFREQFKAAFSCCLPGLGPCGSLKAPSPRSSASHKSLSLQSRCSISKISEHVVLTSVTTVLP
Description: (§1) Chinese hamster ovary (CHO) cells expressing the human orexin-1 receptor and the human orexin-2 receptor, respectively, are grown in culture medium (Ham F-12 with L-Glutamine) containing 300 μg/ml G418, 100 U/ml penicillin, 100 μg/ml streptomycin and 10% heat inactivated fetal calf serum (FCS). The cells are seeded at 20′000 cells/well into 384-well black clear bottom sterile plates (Greiner). The seeded plates are incubated overnight at 37° C. in 5% CO2.
(§2) Human orexin-A as an agonist is prepared as 1 mM stock solution in MeOH:water (1:1), diluted in HBSS containing 0.1% bovine serum albumin (BSA), NaHCO3:0.375 g/l and 20 mM HEPES for use in the assay at a final concentration of 3 nM.
(§3) Antagonists are prepared as 10 mM stock solution in DMSO, then diluted in 384-well plates, first in DMSO, then in HBSS containing 0.1% bovine serum albumin (BSA), NaHCO3: 0.375 g/l and 20 mM HEPES.
(§4) On the day of the assay, 50 μl of staining buffer (HBSS containing 1% FCS, 20 mM HEPES, NaHCO3: 0.375 g/l, 5 mM probenecid (Sigma) and 3 μM of the fluorescent calcium indicator fluo-4 AM (1 mM stock solution in DMSO, containing 10% pluronic) is added to each well.
(§5) The 384-well cell-plates are incubated for 50 min at 37° C. in 5% CO2 followed by equilibration at RT for 30-120 min before measurement.
(§6) Within the Fluorescent Imaging Plate Reader (FLIPR2 or FLIPR Tetra, Molecular Devices), antagonists are added to the plate in a volume of 10 μl/well, incubated for 10 min and finally 10 μl/well of agonist is added. Fluorescence is measured for each well at 1 second intervals, and the height of each fluorescence peak is compared to the height of the fluorescence peak induced by 3 nM orexin-A with vehicle in place of antagonist. For each antagonist, the IC50 value (the concentration of compound needed to inhibit 50% of the agonistic response) is determined. Optimized conditions may be achieved by adjustment of pipetting speed and cell splitting regime. The calculated IC50 values of the compounds may fluctuate depending on the daily cellular assay performance. Fluctuations of this kind are known to those skilled in the art.

human orexin-2 receptor = molecular target: T2, human orexin-2 receptor (Homo sapiens, UniProt O43614); assay: FLIPR intracellular calcium assay, orexin receptor antagonistic activity (OX2); type: cell-based; conditions: CHO cells expressing human orexin-2 receptor, 3 nM orexin-A
T2 construct: expressed in transfected cells; host or cells: CHO (Chinese hamster ovary) cells, grown under G418 selection
T2 sequence (O43614 1-444): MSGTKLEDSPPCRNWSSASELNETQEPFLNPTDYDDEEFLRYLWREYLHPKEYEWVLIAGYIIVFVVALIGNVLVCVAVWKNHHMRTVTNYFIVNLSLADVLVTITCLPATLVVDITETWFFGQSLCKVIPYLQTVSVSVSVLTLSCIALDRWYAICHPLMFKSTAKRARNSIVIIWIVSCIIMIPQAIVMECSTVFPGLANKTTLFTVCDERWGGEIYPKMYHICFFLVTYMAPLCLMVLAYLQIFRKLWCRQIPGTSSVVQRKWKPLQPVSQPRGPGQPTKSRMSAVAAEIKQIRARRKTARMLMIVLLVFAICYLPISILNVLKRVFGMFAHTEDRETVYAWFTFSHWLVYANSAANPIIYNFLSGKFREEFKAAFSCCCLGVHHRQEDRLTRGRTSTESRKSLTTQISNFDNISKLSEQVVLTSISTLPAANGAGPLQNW
Description: as §1, §2, §3, §4, §5, §6

[1] = measured with FLIPR Tetra (marked *)

Row | IC50 (human orexin-1 receptor; [1]) [nM] | IC50 (human orexin-2 receptor; [1]) [nM] | IC50 (human orexin-1 receptor; measured with FLIPR 2) [nM] | IC50 (human orexin-2 receptor; measured with FLIPR 2) [nM] | Structure (SMILES)
1 | 807 | 203 | – | – | Cc1cccc(-c2ccccc2C(=O)N(CCNC(=O)c2cccc3c2OCCO3)CC2CC2)c1 [Example 252, 2,3-Dihydro-benzo[1,4]dioxine-5-carboxylic acid {2-[cyclopropylmethyl-(3′-methyl-biphenyl-2-carbonyl)-amino]-ethyl}-amide]
2 | – | – | 119 | 19 | Cc1nc2sccn2c1C(=O)NCC(Cc1ccccc1)NC(=O)c1ccccc1-c1ccccc1 (racemic) [Example 73, 6-Methyl-imidazo[2,1-b]thiazole-5-carboxylic acid {(RS)-2-[(biphenyl-2-carbonyl)-amino]-3-phenyl-propyl}-amide]
3 | 263 | 4.2 | – | – | Nc1nc(C(=O)N(CCNC(=O)c2cccc3occc23)CC2CC2)c(-c2ccc(F)cc2)s1 [Example 261, 2-Amino-5-(4-fluoro-phenyl)-thiazole-4-carboxylic acid {2-[(benzofuran-4-carbonyl)-amino]-ethyl}-cyclopropylmethyl-amide]
4 | – | – | 114 | 718 | Cc1nc2sccn2c1C(=O)NCC(C(C)C)N(Cc1ccccc1)C(=O)c1ccccc1-c1ccccc1 (racemic) [Example 99, 6-Methyl-imidazo[2,1-b]thiazole-5-carboxylic acid {(RS)-2-[benzyl-(biphenyl-2-carbonyl)-amino]-3-methyl-butyl}-amide]
5 | 16 | 12 | – | – | Cc1cccc(-c2sc(C3CC3)nc2C(=O)N(CCNC(=O)c2c(C)nc3sccn23)CC2CC2)c1 [Example 171, 6-Methyl-imidazo[2,1-b]thiazole-5-carboxylic acid {2-[cyclopropylmethyl-(2-cyclopropyl-5-m-tolyl-thiazole-4-carbonyl)-amino]-ethyl}-amide]
6 | – | – | 5.7 | 5.8 | Cc1nc2sccn2c1C(=O)NCC(C)N(Cc1ccccc1)C(=O)c1ccccc1-c1ccccc1 (racemic) [Example 97, 6-Methyl-imidazo[2,1-b]thiazole-5-carboxylic acid {(RS)-2-[benzyl-(biphenyl-2-carbonyl)-amino]-propyl}-amide]
